Experimental data as given in article PMC5797143, “Epigenetic modulation of inflammation and synaptic plasticity promotes resilience against stress in mice” (Nature Communications, 2018).

How the values were obtained:
[1] = test system: CpG-rich sequences of mouse IL-6 promoter and introns 1, 3; experiment: CpG-free luciferase reporter with IL-6 promoter/intron CpG-rich segments in N2a cells; assay type: cell-based; conditions: 24 h
Method: To investigate how DHCA may attenuate IL-6 generation, we tested the effect of DHCA on Toll-like receptor-4 mediated signaling pathways. PBMCs were pretreated with DHCA and stimulated with LPS using the same protocol as during screening. Samples were taken at 0, 30 min, 60 min, 6 h and 16 h following LPS stimulation and cell lysates were subjected to a multiplex ELISA assay. […] Based on evidence that DNA methylation at a single CpG in the human IL-6 promoter region effectively alters IL-6 expression, we next tested whether DHCA can modulate IL-6 gene expression through methylation mechanisms. We treated PBMC cells with DHCA and measured the expression of enzymes essential for DNA methylation/demethylation. […] To investigate how methylation influences IL-6 gene expression, we employed the CpG-free luciferase reporter system. We cloned a ~280 bp CpG rich DNA segment from the mouse IL-6 promoter into a promoterless CpG-free reporter construct and transfected into N2a cells. We found the CpG-rich IL-6 promoter segment presented no inherent promoter activity as reflected by no differences in luciferase activity compared to the control construct (Fig. 2f). […] We then cloned CpG rich DNA segments from IL-6 introns 1, 3 or 4 into the CpG-free luciferase reporter construct with a minimal EF1 promoter and no enhancer activity. […] In contrast, the CpG-rich region of IL-6 intron 4 presented no observable enhancer activity (Fig. 2g). […] To test whether DHCA may influence the expression of other pro-inflammatory factors, we measured the level of secreted cytokines following LPS stimulation (Supplementary Fig. 3).
CpG-rich motif from mouse IL-6 promoter and intron 1, intron 3, and intron 4 were cloned into basic (no promoter or enhancer) or promoter (minimal EF1 promoter with no enhancer) pCpG-free Lucia plasmid (InvivoGen) using In-Fusion Cloning Kit (Clontech Laboratories). Plasmids were prepared in E. coli GT115 cells and expressed in N2A neuoblastoma cells using lipofectamine 2000 (ThermoFisher) according to manufacturer’s instruction. Following overnight recovery, cells were subjected to 5 µM of methylation inhibitor 5-Aza-2′-deoxycytidine (AZA-DC) or DHCA treatment. Twenty-four hours later, 10 µl of medium was incubated with 50 µl of QUANTI-Luc luciferase substrate for luciferase activity assessment.

[2] = in vivo, po; cited from earlier work
[3] = test system: stress susceptible C57BL/6 mice after RSDS; experiment: RSDS, therapeutic treatment of susceptible mice; assay type: in vivo, mouse; conditions: Imipramine 20 mg/kg-BW/day i.p. for 35 days
Source text: To test the therapeutic efficacy of DHCA/Mal-gluc, we induced depression-like behavior using two different methods. In the first set of studies, mice were subjected to RSDS followed by SI test. All susceptible mice with SI ratio <0.8 were randomly grouped into vehicle or DHCA/Mal-gluc group. Following two weeks treatment, all mice were subjected to SI re-testing without further stress exposure (Fig. 5a). […] In a parallel study to compare the treatment efficacy with the tricylic antidepressant Imipramine, we treated the susceptible mice with Imipramine through i.p. injection for 35 days. […] We then examined the effect of DHCA/Mal-gluc on RSDS-induced anhedonia and an ethologically relevant self-neglect phenotype. […] We next measured the levels of IL-6 in plasma and Rac1 in the NAc after behavioral testing. […]
All social interaction (SI) tests were performed under red-light conditions. […] Their movements were automatically monitored and recorded (Ethovision 3.0; Noldus Information Technology) for 2.5 min in the absence (target absent phase) of a novel CD-1 mouse and followed by 2.5 min exploratory behavior in the presence of a caged CD-1 mouse (target present phase). SI behavior was then calculated as a ratio of the time spent in the interaction zone with the target present divided by the time spent in the interaction zone with the target absent. […]

Molecule | Detection in Brain [2] | Detection in Plasma [2] | also measured
Nc1ncn([C@H]2C[C@H](O)[C@@H](CO)O2)c(=O)n1 [AZA-DC, 5-aza-2′-deoxycytidine] | – | – | luciferase expression, CpG-rich IL-6 promoter segment ([1]; 5 µM): no effect; luciferase (enhancer) activity, IL-6 intron 1 [1]: partially reduced; luciferase (enhancer) activity, IL-6 intron 3 [1]: totally abolished
quercetin-glucuroide | + | + | –
OMe-resveratrol-glucuronide | + | + | –
OMe-quercetin-glucuronide | + | + | –
resveratrol-glucuronide | + | + | –
CN(C)CCCN1c2ccccc2CCc2ccccc21 [Imipramine] | – | – | susceptible mice with resilient phenotype upon retesting [3]: about 50%
